The values below come from PubChem BioAssay (NCI).

Some test systems named below: HOP-62 NSCLC; HOP-92 NSCLC; HS 578T breast; IGROV1 ovarian; KM12 colon; LOX IMVI melanoma; M14 melanoma; MDA-MB-231 breast; SF-539 CNS; UACC-257 melanoma; MALME-3M melanoma.
What all share (experiment): NCI anticancer screen, dose series, 48 h

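Following 48 hours of exposure in 96-well plates, responses at five concentrations were used to interpolate endpoints linearly. GI50 is the concentration that inhibits growth by half. TGI: total growth inhibition.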

On to `CCc1cc(=O)n(/C(C)=C/c2ccccc2)n1C`, for which the TGI in the test on HOP-62 NSCLC, in the test on HOP-92 NSCLC, in the test with HS 578T breast, in the test with IGROV1 ovarian, with KM12 colon and with LOX IMVI melanoma was over 100 µM throughout. In addition, the TGI in the test with M14 melanoma, in the test with MDA-MB-231 breast, in the test on SF-539 CNS and in the test with UACC-257 melanoma was over 100 µM throughout.

For `CCOC(=O)c1csc(NC(=O)CCCC#N)n1`, the TGI in the test with HOP-62 NSCLC, with HOP-92 NSCLC, in the test on HS 578T breast, in the test on KM12 colon, in the test with LOX IMVI melanoma and with M14 melanoma was over 100 µM throughout. The TGI in the test on MDA-MB-231 breast, in the test on SF-539 CNS and in the test with UACC-257 melanoma was over 100 µM each time.

As for `c1ccc([P+](Cc2csnn2)(c2ccccc2)c2ccccc2)cc1`, the TGI with HOP-62 NSCLC, with HOP-92 NSCLC, in the test with IGROV1 ovarian, in the test with KM12 colon, with LOX IMVI melanoma and with M14 melanoma was over 100 µM in each case. Also, the TGI in the test on MALME-3M melanoma, in the test with SF-539 CNS and with UACC-257 melanoma was over 100 µM each time.

For `CCOC(=O)C(C)NC(=O)N(C)C12CC3CC(CC(C3)C1)C2` (stereo not drawn), the TGI in the test with HOP-62 NSCLC is over 422 µM; in the test with HOP-92 NSCLC, 283 µM; in the test on IGROV1 ovarian it was over 500 µM; with KM12 colon, over 281 µM; in the test with LOX IMVI melanoma it was 323 µM; in the test with MALME-3M melanoma, 497 µM. Further, the figures for the TGI in the test on SF-539 CNS and with UACC-257 melanoma were over 500 µM and 406 µM, respectively.

Consider `O=C1c2c(c3c4ccc(Br)cc4oc3c3[nH]c4ccccc4c23)C(=O)N1O`, for which, in the test with HOP-92 NSCLC, the GI50 is 1.74 µM and the TGI is 4.45 µM. Besides, in the test with MDA-MB-231 breast, the GI50 is 2.48 µM and the TGI is over 100 µM.

`CCC1(CC)C(=O)NC(=S)N=C1N`: the TGI in the test on HOP-62 NSCLC, in the test with HOP-92 NSCLC, in the test on IGROV1 ovarian, in the test on LOX IMVI melanoma, in the test on M14 melanoma and with MALME-3M melanoma was over 100 µM in each case. Also, the TGI in the test with SF-539 CNS and in the test on UACC-257 melanoma was over 100 µM in each case.

For the compound `COc1ccc(CN2C(=O)C(=O)N(C)C2=O)c2ccccc12`, the TGI in the test with HOP-62 NSCLC, in the test on HS 578T breast, in the test with IGROV1 ovarian, in the test on KM12 colon, in the test with LOX IMVI melanoma and in the test on M14 melanoma was over 10 µM each time. Moreover, the TGI in the test on MALME-3M melanoma, in the test on MDA-MB-231 breast and in the test with SF-539 CNS was over 10 µM throughout.

In the case of `CCOC(=O)C1=C(C)NC(=O)N([N+](=O)[O-])C1c1ccccc1C(F)(F)F` (stereo not drawn), the TGI with HOP-62 NSCLC, in the test on HOP-92 NSCLC, in the test with HS 578T breast, with IGROV1 ovarian, in the test with LOX IMVI melanoma and in the test on M14 melanoma was over 100 µM throughout. Further, the TGI in the test on MALME-3M melanoma was over 100 µM; in the test with MDA-MB-231 breast it was over 100 µM; in the test on SF-539 CNS it was 71.9 µM; in the test on UACC-257 melanoma, over 100 µM.

Turning to `O=C(NN1C(=O)CSC1c1ccc(Cl)c(Cl)c1)c1ccncc1` (stereo not drawn), the TGI in the test with IGROV1 ovarian, in the test with KM12 colon, with LOX IMVI melanoma, with M14 melanoma, in the test with MALME-3M melanoma and in the test on SF-539 CNS was over 100 µM throughout. Moreover, the TGI with UACC-257 melanoma was over 100 µM.

As to `Cc1cc(C)nc(NS(=O)(=O)c2ccc(Nc3c4ccccc4nc4c(C(=O)NCCO)cccc34)cc2)n1`, the TGI in the test with HOP-62 NSCLC is 71.3 µM; in the test with HOP-92 NSCLC, over 100 µM; in the test with HS 578T breast, over 100 µM; in the test on IGROV1 ovarian it was over 100 µM; in the test with KM12 colon, 22.9 µM; with LOX IMVI melanoma it was 25.5 µM. In addition, the TGI came out at 65 µM in the test on M14 melanoma, 28.7 µM in the test with MALME-3M melanoma and 27.4 µM with MDA-MB-231 breast.

With `O=c1c2cc3c(=O)n(CCc4ccccc4CO)c(=O)c3cc2c(=O)n1CCc1ccccc1CO`, the TGI with IGROV1 ovarian, in the test with KM12 colon, in the test with LOX IMVI melanoma, in the test with MALME-3M melanoma, in the test with SF-539 CNS and in the test with UACC-257 melanoma was over 100 µM throughout.

On to `COc1cc(CCCOC2OC(COC3OCC(O)C(O)C3O)C(O)C(O)C2O)cc2cc(-c3ccc4c(c3)OCO4)oc12` (stereo not drawn), for which the TGI in the test on HOP-62 NSCLC, in the test with HOP-92 NSCLC, with IGROV1 ovarian, with KM12 colon, in the test on LOX IMVI melanoma and in the test on MALME-3M melanoma was over 175 µM each time. In addition, the TGI in the test on SF-539 CNS and with UACC-257 melanoma was over 175 µM each time.

On to `Nc1nc(Nc2ccc(OCc3cccc(F)c3)cc2)c2c(n1)[nH]c1ccc(O)cc12`, for which the GI50 was 2.37 µM in the test on HOP-92 NSCLC; 2.41 µM in the test on HS 578T breast; 3.75 µM in the test with IGROV1 ovarian; 3.55 µM in the test with KM12 colon; 2.12 µM with M14 melanoma; 2.71 µM in the test with MDA-MB-231 breast. Besides, the GI50 with SF-539 CNS is 1.79 µM; in the test with UACC-257 melanoma it was 4.81 µM. Also, the TGI was 7.98 µM in the test with HOP-92 NSCLC; 6.29 µM in the test on HS 578T breast; 14.7 µM in the test with IGROV1 ovarian; 11.7 µM with KM12 colon; 4.77 µM in the test with M14 melanoma; 7.33 µM in the test with MDA-MB-231 breast. Further, the TGI came to 3.31 µM in the test with SF-539 CNS and 22.2 µM in the test with UACC-257 melanoma.
